Data on 26 molecules can be found in PubChem BioAssay AID330 (DTP/NCI, 2004).

Each structure is given as a SMILES string. “And” between values parts separate entries of the source, which are not always exact repeats. Equal entries are not always repeated. Toxic doses and inconclusive results are not listed.

The test relates to P388 leukemia ip, CD2F1 mice, survival T/C. The test can be described thus: NCI In Vivo Anticancer Drug Screen. Data for tumor model P388 Leukemia (intraperitoneal) in CD2F1 (CDF1) mice. As to conditions: endpoint: median survival time, higher = longer survival. The gist of the method:
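Mice carrying the transplanted tumor received test compound or vehicle. Survival was recorded in each group, and the value is the treated-group measurement divided by that of the vehicle-treated control group.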

Where [1] appears, read: dose: 50.0 mg/kg/injection, schedule: Q01DX005 (ip), vehicle: Klucel (hydroxypropylcellulose) (HPC).
Setting [2] is: dose: 100.0 mg/kg/injection, schedule: Q01DX005 (ip), vehicle: Klucel (hydroxypropylcellulose) (HPC).
[3] abbreviates: dose: 200.0 mg/kg/injection, schedule: Q01DX005 (ip), vehicle: Klucel (hydroxypropylcellulose) (HPC).
[4] abbreviates: dose: 100.0 mg/kg/injection, schedule: Q04DX003 (ip), vehicle: Klucel (hydroxypropylcellulose) (HPC).
The mark [5] stands for this setting: dose: 200.0 mg/kg/injection, schedule: Q04DX003 (ip), vehicle: Klucel (hydroxypropylcellulose) (HPC).
Where [6] appears, read: dose: 400.0 mg/kg/injection, schedule: Q04DX003 (ip), vehicle: Klucel (hydroxypropylcellulose) (HPC).
The mark [7] stands for this setting: dose: 50.0 mg/kg/injection, schedule: Q01DX009 (ip), vehicle: saline.
Where [8] appears, read: dose: 100.0 mg/kg/injection, schedule: Q01DX009 (ip), vehicle: saline.
Setting [9] is: dose: 200.0 mg/kg/injection, schedule: Q01DX009 (ip), vehicle: saline.
Where [10] appears, read: dose: 50.0 mg/kg/injection, schedule: Q01DX005 (ip), vehicle: saline with Tween-80.
Setting [11] is: dose: 100.0 mg/kg/injection, schedule: Q01DX005 (ip), vehicle: saline with Tween-80.
The mark [12] stands for this setting: dose: 200.0 mg/kg/injection, schedule: Q01DX005 (ip), vehicle: saline with Tween-80.
The mark [13] stands for this setting: dose: 100.0 mg/kg/injection, schedule: Q01DX001 (ip), vehicle: saline.
Setting [14] is: dose: 200.0 mg/kg/injection, schedule: Q01DX001 (ip), vehicle: saline.
Where [15] appears, read: dose: 100.0 mg/kg/injection, schedule: Q01DX009 (ip), vehicle: saline with Tween-80.

As for `CC(Nc1ncccn1)Nc1ncccn1`, the T/C is, setting by setting: (dose: 60.0 mg/kg/injection, schedule: Q01DX005 (ip), vehicle: Klucel (hydroxypropylcellulose) (HPC)) 107 % of control; (dose: 120.0 mg/kg/injection, schedule: Q01DX005 (ip), vehicle: Klucel (hydroxypropylcellulose) (HPC)) 102 % of control; (dose: 240.0 mg/kg/injection, schedule: Q01DX005 (ip), vehicle: Klucel (hydroxypropylcellulose) (HPC)) 111 % of control.

For `CSc1nc(C#N)c(/N=C\N(C)C)s1`, the T/C was 100 % of control under setting [1], 99 % of control under setting [2] and 100 % of control under setting [3].

In the case of `C1CCC2CC2C2(CC1)CO2` (configuration not stated), the T/C under setting [4] is 106 % of control, the T/C under setting [5] is 108 % of control and the T/C under setting [6] is 115 % of control.

As for `O=C(N/N=C/c1cccnc1)C(=O)Nc1cccc(C(F)(F)F)c1`, the T/C is, setting by setting: (dose: 6.25 mg/kg/injection, schedule: Q01DX005 (ip), vehicle: Klucel (hydroxypropylcellulose) (HPC)) 95 % of control; (dose: 12.5 mg/kg/injection, schedule: Q01DX005 (ip), vehicle: Klucel (hydroxypropylcellulose) (HPC)) 89 % of control; (dose: 25.0 mg/kg/injection, schedule: Q01DX005 (ip), vehicle: Klucel (hydroxypropylcellulose) (HPC)) 87 % of control.

`CNC(=O)OCc1nnn(-c2ccccc2)c1COC(=O)NC`: the T/C (dose: 12.5 mg/kg/injection, schedule: Q01DX005 (ip), vehicle: distilled water + Tween-80) is 98 % of control; the T/C (dose: 25.0 mg/kg/injection, schedule: Q01DX005 (ip), vehicle: distilled water + Tween-80) is 98 % of control; the T/C (dose: 50.0 mg/kg/injection, schedule: Q01DX005 (ip), vehicle: distilled water + Tween-80) was 96 % of control; the T/C (dose: 100.0 mg/kg/injection, schedule: Q01DX005 (ip), vehicle: distilled water + Tween-80) was 91 % of control; the T/C (dose: 200.0 mg/kg/injection, schedule: Q01DX005 (ip), vehicle: distilled water + Tween-80) is 88 % of control.

Turning to `CN(C)c1ccc(N=C2C=CC(=O)C(Cl)=C2)cc1`, the T/C is 106 % of control (dose: 25.0 mg/kg/injection, schedule: Q01DX009 (ip), vehicle: suspension in saline) and 115 % of control (dose: 50.0 mg/kg/injection, schedule: Q01DX009 (ip), vehicle: suspension in saline).

As to `O=C1OCCOCCOCCOCCOCCOC(=O)c2cccc1n2`, the T/C reads like this: under setting [4], 96 % of control; under setting [5], 103 % of control; under setting [6], 101 % of control.

Regarding `NC1=NC(c2ccc(O)cc2O)c2[nH]cnc2N1` (configuration not stated), the T/C was 99 % of control under setting [7], 100 % of control under setting [8] and 97 % of control under setting [9].

Regarding `CCN1CNC(=O)NC1`, the T/C is 112 % of control under setting [7]; 111 % of control under setting [8]; 100 % of control under setting [9]; 118 % of control (dose: 400.0 mg/kg/injection, schedule: Q01DX009 (ip), vehicle: saline).

On to `O=[N+]([O-])OC1CCCC(O[N+](=O)[O-])c2c1n([O-])c1ccccc1[n+]2=O` (configuration not stated), for which the T/C reads like this: under setting [10], 95 % of control; under setting [11], 89 % of control; under setting [12], 92 % of control.

`NC1CCC2CCCCC2C1` (configuration not stated): the T/C reads like this: under setting [13], 100 % of control; under setting [14], 104 % of control.

On to `CCc1nc(N)nc(N)c1-c1ccc([N+](=O)[O-])cc1`, for which the T/C was 108 % of control under setting [10] and 108 % of control under setting [11].

In the case of `CC(C)C1N(N2C(=O)CS(=O)(=O)C2C(C)C)C(=O)CS1(=O)=O` (configuration not stated), the T/C is 98 % of control under setting [10], 101 % of control under setting [11] and 102 % of control under setting [12].

`CNC(=O)c1ccccc1C(=O)c1ccccc1OC`: the T/C runs as follows: under setting [1], 104 % of control; under setting [2], 99 % of control; under setting [3], 97 % of control.

Consider `COCC1=C(C)CC(C(C)(C)C(=O)OC)C1=O` (configuration not stated), for which the T/C was 101 % of control under setting [13]; 101 % of control under setting [14]; 104 % of control (dose: 400.0 mg/kg/injection, schedule: Q01DX001 (ip), vehicle: saline).

As to `Cc1ccc(Nc2nc(N)nc3nc(N)c(C(N)=O)nc23)cc1`, the T/C is 100 % of control (dose: 25.0 mg/kg/injection, schedule: Q01DX009 (ip), vehicle: saline with Tween-80); 100 % of control (dose: 50.0 mg/kg/injection, schedule: Q01DX009 (ip), vehicle: saline with Tween-80); 91 % of control under setting [15].

For the molecule `CC(=O)c1ccc2c(c1)[nH]c1ccccc12`, the T/C was 86 % of control under setting [15]; 90 % of control (dose: 200.0 mg/kg/injection, schedule: Q01DX009 (ip), vehicle: saline with Tween-80); 90 % of control (dose: 400.0 mg/kg/injection, schedule: Q01DX009 (ip), vehicle: saline with Tween-80).

With `O=C(C=C(C(F)(F)F)C(F)(F)F)c1ccccc1[N+](=O)[O-]`, the T/C was 109 % of control (dose: 1.32 mg/kg/injection, schedule: Q04DX003 (ip), vehicle: other); 100 % of control (dose: 2.0 mg/kg/injection, schedule: Q04DX003 (ip), vehicle: other); 109 % of control (dose: 3.0 mg/kg/injection, schedule: Q04DX003 (ip), vehicle: other); 104 % of control (dose: 4.5 mg/kg/injection, schedule: Q04DX003 (ip), vehicle: other); 109 % of control (dose: 6.25 mg/kg/injection, schedule: Q04DX003 (ip), vehicle: other); 86 % of control (dose: 25.0 mg/kg/injection, schedule: Q04DX003 (ip), vehicle: other).

As to `CC1CC(C)(C)OC(C2CC=CCC2C)O1` (configuration not stated), the T/C is, setting by setting: under setting [10], 97 % of control; under setting [11], 100 % of control; under setting [12], 109 % of control.

For `O=C1C(N2CCOCC2)=C(N2CC2)C(=O)C(N2CCOCC2)=C1N1CC1`, the T/C (dose: 0.25 mg/kg/injection, schedule: Q01DX009 (ip), vehicle: saline) was 119 % of control; the T/C (dose: 0.5 mg/kg/injection, schedule: Q01DX009 (ip), vehicle: saline) is 152 % of control; the T/C (dose: 0.66 mg/kg/injection, schedule: Q01DX009 (ip), vehicle: saline) was 153 % of control; the T/C (dose: 1.0 mg/kg/injection, schedule: Q01DX009 (ip), vehicle: saline) was 152 % of control and 161 % of control; the T/C (dose: 1.5 mg/kg/injection, schedule: Q01DX009 (ip), vehicle: saline) was 170 % of control.

Turning to `N#Cc1ccc(OC(=O)Nc2c(Cl)cc(Cl)cc2Cl)cc1`, the T/C is 100 % of control (dose: 60.0 mg/kg/injection, schedule: Q01DX005 (ip), vehicle: saline with Tween-80) and 92 % of control (dose: 120.0 mg/kg/injection, schedule: Q01DX005 (ip), vehicle: saline with Tween-80).

Turning to `O=[As]O`, the T/C (dose: 0.5 mg/kg/injection, schedule: Q01DX010 (ip), vehicle: saline with Tween-80) was 100 % of control; the T/C (dose: 1.0 mg/kg/injection, schedule: Q01DX010 (ip), vehicle: saline with Tween-80) is 109 % of control; the T/C (dose: 2.0 mg/kg/injection, schedule: Q01DX010 (ip), vehicle: saline with Tween-80) was 109 % of control.

As to `FC(F)(F)c1ccccc1NC(=S)Nc1ccc(I)cc1`, the T/C is, setting by setting: (dose: 50.0 mg/kg/injection, schedule: Q01DX009 (ip), vehicle: gum acacia) 92 % of control; (dose: 100.0 mg/kg/injection, schedule: Q01DX009 (ip), vehicle: gum acacia) 92 % of control; (dose: 200.0 mg/kg/injection, schedule: Q01DX009 (ip), vehicle: gum acacia) 89 % of control.

On to `CC(=O)Nc1cc(S(=O)(=O)O)cc2c(N=Nc3ccc(C(=O)Nc4ccc(N=Nc5ccc(S(=O)(=O)O)cc5)cc4)cc3)c(S(=O)(=O)O)cc(O)c12`, for which the T/C runs as follows: under setting [10], 93 % of control; under setting [11], 90 % of control; under setting [12], 101 % of control.

Take `O=C(O)c1ccccc1-c1ccc2ccccc2c1`: the T/C runs as follows: under setting [10], 94 % of control; under setting [11], 105 % of control; under setting [12], 110 % of control.

As to `CCC[CH2][Hg][Cl]`, the T/C by setting is: (dose: 3.3 mg/kg/injection, schedule: Q01DX009 (ip), vehicle: other) 95 % of control; (dose: 5.0 mg/kg/injection, schedule: Q01DX009 (ip), vehicle: other) 100 % of control; (dose: 7.5 mg/kg/injection, schedule: Q01DX009 (ip), vehicle: other) 118 % of control.
